Measurements taken from patent US20250340560A1, “SUBSTITUTED PYRAZOLO[1,5-a]PYRIMIDINES AS BRUTON'S TYROSINE KINASE MODULATORS” (BEIGENE SWITZERLAND GMBH, priority 2013, published 2025).
Structures can show the parent of a compound that is named as a salt.

Each compound was assayed against Recombinant Btk (Homo sapiens (Human), UniProt Q06187) (assay: BTK kinase assay (TR-FRET)). Details: read-out: IC50 (nM) Btk; 1 hour pre-incubation, ATP at Km.
Recombinant Btk, sequence (Q06187 whole entry): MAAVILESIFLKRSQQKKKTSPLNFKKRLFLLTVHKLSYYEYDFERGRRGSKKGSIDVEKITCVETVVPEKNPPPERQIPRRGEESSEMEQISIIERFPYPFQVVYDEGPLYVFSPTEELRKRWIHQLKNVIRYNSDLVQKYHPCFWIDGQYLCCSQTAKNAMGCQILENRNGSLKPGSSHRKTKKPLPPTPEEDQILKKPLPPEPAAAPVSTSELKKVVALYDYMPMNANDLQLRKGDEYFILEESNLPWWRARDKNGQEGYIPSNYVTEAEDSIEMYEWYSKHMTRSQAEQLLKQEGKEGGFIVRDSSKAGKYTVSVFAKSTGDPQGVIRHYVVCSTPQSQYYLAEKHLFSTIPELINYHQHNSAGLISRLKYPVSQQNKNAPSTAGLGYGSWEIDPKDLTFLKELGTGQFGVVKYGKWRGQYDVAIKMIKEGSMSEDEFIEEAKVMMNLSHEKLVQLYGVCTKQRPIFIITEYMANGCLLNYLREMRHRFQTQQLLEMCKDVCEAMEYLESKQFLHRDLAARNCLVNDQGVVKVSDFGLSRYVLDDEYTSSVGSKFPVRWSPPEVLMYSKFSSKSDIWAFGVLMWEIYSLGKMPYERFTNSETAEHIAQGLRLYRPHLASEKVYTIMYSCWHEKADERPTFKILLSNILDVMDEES
In the case of `NC(=O)c1c(-c2ccc(Oc3ccccc3)cc2)nn2c1[nH]c1cccc(N)c12` [Compound 131, 8-amino-2-(4-phenoxyphenyl)-4H-benzo[4,5]imidazo[1,2-b]pyrazole-3-carboxamide], the IC50 is reported as 170 nM.
`COCC#CC(=O)N1CCC([C@@H]2CCNc3c(C(N)=O)c(-c4ccc(Oc5ccccc5)cc4)nn32)CC1` [Compound 192, (S)-7-(1-(4-Methoxybut-2-ynoyl)piperidin-4-yl)-2-(4-phenoxyphenyl)-4,5,6,7-tetrahydropyrazolo[1,5-a]pyrimidine-3-carboxamide] showed an IC50 of 0.91 nM.
In the case of `NC(=O)c1c(-c2ccc(Oc3ccccc3)cc2)nn2c1[nH]c1cc(N)ccc12` [Compound 129], the IC50 is reported as 23 nM.
With `NC(=O)c1c(-c2ccc(F)c(Cl)c2)nn2c1NCCC2c1ccccc1NC(=O)/C=C/CN1CCCCC1` (stereo not shown) [Compound 153, (E)-2-(3-Chloro-4-fluorophenyl)-7-(2-(4-(piperidin-1-yl)but-2-enamido)phenyl)-4,5,6,7-tetrahydropyrazolo[1,5-a]pyrimidine-3-carboxamide] the IC50 was 6.1 nM.
`C=CC(=O)N1CCC2[C@H](CNc3c(C(N)=O)c(-c4ccc(Oc5ccccc5)cc4)nn32)C1` (single isomer, unassigned) [Compound 30b] gave an IC50 of 16 nM.
With `NC(=O)c1c(-c2ccc(Oc3ccccc3)cc2)nn2c(-c3cccc(N)c3)ccnc12` [Compound 7, 7-(3-Aminophenyl)-2-(4-phenoxyphenyl)pyrazolo[1,5-a]pyrimidine-3-carboxamide] the IC50 was over 10000 nM.
With `CC(=O)N1CCc2[nH]c3c(C(N)=O)c(-c4ccc(Oc5ccccc5)cc4)nn3c2C1` [Compound 55, 7-Acetyl-2-(4-phenoxyphenyl)-5,6,7,8-tetrahydro-4H-pyrazolo[5′,1′:2,3]imidazo [4,5-c]pyridine-3-carboxamide] the IC50 was 82 nM.
Work on `C=CC(=O)Nc1ccccc1C1CCNc2c(C(N)=O)c(-c3cc(OC)c(OC)c(OC)c3)nn21` (stereo not shown) [Compound 167, 7-(2-Acrylamidophenyl)-2-(3,4,5-trimethoxyphenyl)-4,5,6,7-tetrahydropyrazolo[1,5-a]pyrimidine-3-carboxamide] yielded an IC50 of 2.4 nM.
`C=CC(=O)N1CC(C2CCNc3c(C(N)=O)c(-c4ccc(OCc5ccccn5)cc4)nn32)C1` (stereo not shown) [Compound 105, 7-(1-acryloylazetidin-3-yl)-2-(4-(pyridin-2-ylmethoxy)phenyl)-4,5,6,7-tetrahydropyrazolo[1,5-a]pyrimidine-3-carboxamide] gave an IC50 of 18 nM.
`C=CC(=O)N1CC(C2CCNc3c(C(N)=O)c(-c4ccc(Oc5ccc(Cl)c(Cl)c5)cc4)nn32)C1` (stereo not shown) [Compound 132, 7-(1-acryloylazetidin-3-yl)-2-(4-(3,4-dichlorophenoxy)phenyl)-4,5,6,7-tetrahydropyrazolo[1,5-a]pyrimidine-3-carboxamide] was tested, and the IC50 was 1.7 nM.
Work on `C=CC(=O)Nc1cc(Cl)ccc1C1CCNc2c(C(N)=O)c(-c3ccc(OCC4CC4)cc3)nn21` (stereo not shown) [Compound 147, 7-(2-Acrylamido-4-chlorophenyl)-2-(4-(cyclopropylmethoxy)phenyl)-4,5,6,7-tetrahydropyrazolo[1,5-a]pyrimidine-3-carboxamide] yielded an IC50 of 2.7 nM.
In the case of `CN(C)CC#CC(=O)N1CCC([C@@H]2CCNc3c(C(N)=O)c(-c4ccc(Oc5ccccc5)cc4)nn32)CC1` [Compound 188, (S)-7-(1-(4-(Dimethylamino)but-2-ynoyl)piperidin-4-yl)-2-(4-phenoxyphenyl)-4,5,6,7-tetrahydropyrazolo[1,5-a]pyrimidine-3-carboxamide], the IC50 is reported as 1.1 nM.
For `NC(=O)c1c(-c2ccc(Oc3ccccc3)cc2)nn2cc(-c3cccc(N)c3)[nH]c12` [Compound 47, 2-(3-Aminophenyl)-6-(4-phenoxyphenyl)-1H-imidazo[1,2-b]pyrazole-7-carboxamide], the IC50 was 110 nM.
With `CN(C)C/C=C/C(=O)N1CCc2c([nH]c3c(C(N)=O)c(-c4ccc(Oc5ccccc5)cc4)nn23)C1` [Compound 64, (E)-6-(4-(Dimethylamino)but-2-enoyl)-2-(4-phenoxyphenyl)-5,6,7,8-tetrahydro-4H-pyrazolo[1′,5′:1,2]imidazo[4,5-c]pyridine-3-carboxamide trifluoroacetate] the IC50 was 0.17 nM.
Work on `CC#CC(=O)N1CC(C2CCNc3c(C(N)=O)c(-c4ccc(Oc5ccccc5)cc4)nn32)C1` (stereo not shown) [Compound 184, 7-(1-(But-2-ynoyl)azetidin-3-yl)-2-(4-phenoxyphenyl)-4,5,6,7-tetrahydropyrazolo[1,5-a]pyrimidine-3-carboxamide] yielded an IC50 of 4.7 nM.
`CC#CC(=O)NCC1CCNc2c(C(N)=O)c(-c3ccc(Oc4ccc(F)cc4F)cc3)nn21` (stereo not shown) [Compound 190, 7-(But-2-ynamidomethyl)-2-(4-(2,4-difluorophenoxy)phenyl)-4,5,6,7-tetrahydropyrazolo[1,5-a]pyrimidine-3-carboxamide] showed an IC50 of 38 nM.
With `NC(=O)c1c(-c2ccc(Oc3ccccc3)cc2)nn2c1NCC[C@H]2C1CCN(C(=O)C#CCN2CCCC2)CC1` [Compound 187, (S)-2-(4-Phenoxyphenyl)-7-(1-(4-(pyrrolidin-1-yl)but-2-ynoyl)piperidin-4-yl)-4,5,6,7-tetrahydropyrazolo[1,5-a]pyrimidine-3-carboxamide] the IC50 was 2.1 nM.
`NC(=O)c1c(-c2ccc(Oc3ccccc3)cc2)nn2c1NCCC21CCNCC1` [Compound 42, 2′-(4-Phenoxyphenyl)-5′,6′-dihydro-4′H-spiro[piperidine-4,7′-pyrazolo [1,5-a]pyrimidine]-3′-carboxamide trifluoroacetate] showed an IC50 of 330 nM.
For `C=CC(=O)Nc1ccc2c(c1)CC(=O)Nc1c(C(N)=O)c(-c3ccc(Oc4ccccc4)cc3)nn1-2` [Compound 75, 8-Acrylamido-5-oxo-2-(4-phenoxyphenyl)-5,6-dihydro-4H-benzo[f]pyrazolo[1,5-a][1,3]diazepine-3-carboxamide], the IC50 was 41 nM.
For `C=CC(=O)N1CCC(C2(C)CCNc3c(C(N)=O)c(-c4ccc(Oc5ccccc5)cc4)nn32)CC1` (stereo not shown) [Compound 138, 7-(1-acryloylpiperidin-4-yl)-7-methyl-2-(4-phenoxyphenyl)-4,5,6,7-tetrahydropyrazolo[1,5-a]pyrimidine-3-carboxamide], the IC50 was 1 nM.
In the case of `C=CC(=O)Nc1ccccc1C1CCNc2c(C(N)=O)c(-c3ccc(Cl)c(C(F)(F)F)c3)nn21` (stereo not shown) [Compound 163, 7-(2-Acrylamidophenyl)-2-(4-chloro-3-(trifluoromethyl)phenyl)-4,5,6,7-tetrahydropyrazolo[1,5-a]pyrimidine-3-carboxamide], the IC50 is reported as 7.3 nM.
Compound `NC(=O)c1c(-c2ccc(Oc3ccccc3)cc2)nn2c1NCC21CNC1` [Compound 45, 6′-(4-Phenoxyphenyl)-1′,2′-dihydrospiro[azetidine-3,3′-imidazo[1,2-b]pyrazole]-7′-carboxamide] has an IC50 of 510 nM.
Work on `NC(=O)c1c(-c2ccc(OCc3ccccc3)cc2)nn2c1NCCC2c1ccccc1N` (stereo not shown) [Compound 9, 7-(2-Aminophenyl)-2-(4-(benzyloxy)phenyl)-4,5,6,7-tetrahydro pyrazolo[1,5-a]pyrimidine-3-carboxamide] yielded an IC50 of 3700 nM.
`C=CC(=O)N1CCC2(CC1)C(=O)Nc1c(C(N)=O)c(-c3ccc(Oc4ccccc4)cc3)nn12` [Compound 83, 1′-Acryloyl-2-oxo-6-(4-phenoxyphenyl)-1,2-dihydrospiro[imidazo[1,2-b]pyrazole-3,4′-piperidine]-7-carboxamide] was tested, and the IC50 was 130 nM.
`CC=CC(=O)N1CCc2[nH]c3c(C(N)=O)c(-c4ccc(Oc5ccccc5)cc4)nn3c2C1` [Compound 58, 7-(But-2-enoyl)-2-(4-phenoxyphenyl)-5,6,7,8-tetrahydro-4H-pyrazolo [5′,1′:2,3]imidazo[4,5-c]pyridine-3-carboxamide] was tested, and the IC50 was 0.43 nM.
